Assay results as given in patent US11975048B2, “Long-acting fatty acid-conjugated GnRH derivatives and pharmaceutical compositions containing same” (NOVEL PHARMA INC., priority 2019, dated 2024).
One block for each compound: values may come before it. Square brackets hold non-standard residues; d marks the D form. Peptide text beside a SMILES is read from it. * marks the point of attachment. Palmitoyl = CCCCCCCCCCCCCCCC(=O)*

How the values were obtained:
ovary of female rats = test: Assay for ovarian morphological change (H&E stained ovaries); format: in vivo; settings: single subcutaneous dose 12.5 mg/kg (as cyclodextrin compositions), day 28, versus non-treated and methyl-β-cyclodextrin groups
Experimental: Experiments were carried out to examine whether or not the fatty acid-conjugated GnRH derivatives maintain the functional characteristics and incur a morphological change in the ovary.
The pharmaceutical compositions of Examples 9, 10, 13, 14, 15, and 16 were each subcutaneously injected at a single dose of 12.5 mg/kg once at the back of the neck to female rats 9 weeks old. Rats to which no drugs were administered were used as a non-treated control while an aqueous solution of 3 mg of methyl-β-cyclodextrin was injected to a negative control. Each group consisted of 3 rats.
On day 28 after injection, the rats were subjected to an autopsy to excise the ovaries which were then stained with hematoxylin-eosin (H&E stain).
Briefly, ovaries were stained with H&E and observed as follows.
11. After finishing the above procedures, the specimen slides were scanned using a ScanScope® AT slider scanner (Aperio) and the images thus stored were analyzed using the ImageScope program (Aperio). The scanned images are depicted in FIGS. 6 to 9.
It is known that when administered to rats, a GnRH agonist reduces the formation of secondary follicles and Graafian follicles (see: Mohammadbeigi et al., Short-term Administration of Gonadotropin-releasing Hormone Agonist (Buserelin) Induces Apoptosis in Rat Ovarian Developmental Follicles, July 2016). In this experiment, secondary and Graafian follicles on ovary images in each treatment group were indicted by arrows to examine whether the number of the follicles is reduced or not.

DU-145 = test: Cell viability assay (CCK-8), prostate cancer cell line DU-145; format: cell-based
Experimental: (§1) GnRH derivatives are clinically applied to the therapy of diseases including breast cancer, prostate cancer, endometriosis, central precocious puberty, and the like. […] An assay for cell viability was performed using the Cell Counting Kit-8 (CCK-8, manufactured by DOJINDO). Each of the cell lines was separated from the T75 flask by trypsinization and transferred to 96-well plates at a density of 1×10^4 cells/mL for DU-145 and at a density of 1×10^5 cells/mL for PC3 and LNCaP, followed by incubation for one hour for attachment.
(§2) Subsequently, each cell line was treated with 100 μM and 200 μM of each of the derivatives of Comparative Examples 1 to 3 and Examples 9 to 16 and the control. In brief, 1% methyl β-cyclodextrin was used as a negative control for cell viability while 0.1% sodium dodecyl sulfate (SDS) served as a positive control. After 48 hours of incubation, the existing culture medium was removed, and 100 μL of fresh culture medium and 10 μL of CCK-8 solution were applied to each cell line. Again, after 48 hours of incubation, the medium solution was replaced by 100 μL of fresh culture medium and 10 μL of CCK-8 solution. The cells were incubated for 4 hours, and then the absorbance was measured at 450 nm to assess cell viability.

PC3 = test: Cell viability assay (CCK-8), prostate cancer cell line PC3; format: cell-based
Experimental: as §1, §2

LNCaP = test: Cell viability assay (CCK-8), prostate cancer cell line LNCaP; format: cell-based
Experimental: as §1, §2

[1] = cited from earlier work
[2] = Blood concentration over time and pharmacokinetic analysis after single subcutaneous administration (LC/MSMS); format: in vivo, female SD rats; settings: rats, 12.5 mg/kg s.c. once
Experimental: The present inventor carried out animal experiments (female SD rats, nine weeks old) in order to examine the increased in vivo half-lives of the prepared fatty acid-conjugated GnRH derivatives. […] DMSO (dimethyl sulfoxide) was used as a solvent as needed. Before administration and at 0.5, 1, 2, and 6 hours and on days 1, 3, 7, 10, 14, 21, and 28 after administration, blood samples were taken from the tail vein of the rats and measured for the blood concentrations of Leuprolide and the derivatives of the Examples, using LC/MSMS. If the concentration reached about 4 ng/mL at a specific time point, no measurements were further made for the next time point.
In the following table, the numerical unit is ng/mL.
The measurement results are graphically depicted in FIGS. 10 to 12. Based on the results, pharmacokinetic analysis was carried out by calculating the half-life (t1/2), clearance rate (CL), volume of distribution (Vd), time to reach the maximum concentration following drug administration (Tmax), maximum concentration following drug administration (Cmax), and systemic exposure to drug (AUCt). The analysis results are as follows.

[3] = emulsion, same dose; cited from earlier work
[4] = treatment conc. 200 μM, listed as Comparative Example 3

Compound: Lauric acid-Glu-His-Trp-Ser-Tyr-D-Leu-Leu-Arg-Pro-NHEt ({Lauric acid}-EHWSY[dL]LRP-NHEt; also: acetate salt) [Example 1]
- numbers of secondary or Graafian follicles in the ovary (ovary of female rats): decreased

Compound: Arachidic acid-Gln-His-Trp-Ser-Tyr-D-Leu-Leu-Arg-Pro-NHEt ({Arachidic acid}-QHWSY[dL]LRP-NHEt; also: acetate salt) [Example 8]
- numbers of secondary or Graafian follicles in the ovary (ovary of female rats): decreased

Compound: CCCCCCCCCCCCOS(=O)(=O)[O-].[Na+] [Positive Control (0.1% SDS), sodium dodecyl sulfate]
- Viability of DU-145 relative to negative control 1% methyl-β-cyclodextrin (%) (DU-145; positive control, 0.1% SDS): 18.18 ± 2.32%
- Viability of PC3 relative to negative control 1% methyl-ß-cyclodextrin (%) (PC3; positive control, 0.1% SDS): 15.11 ± 1.72%
- Viability of LNCaP relative to negative control 1% methyl-β-cyclodextrin (%) (LNCaP; positive control, 0.1% SDS): 20.45 ± 1.58%

Compound: Lauric acid-Gln-His-Trp-Ser-Tyr-D-Leu-Leu-Arg-Pro-NHEt ({Lauric acid}-QHWSY[dL]LRP-NHEt; also: acetate salt) [Example 2]
- numbers of secondary or Graafian follicles in the ovary (ovary of female rats): decreased

Compound: CC(C)C[C@H](NC(=O)CNC(=O)[C@H](Cc1ccc(O)cc1)NC(=O)[C@H](CO)NC(=O)[C@H](Cc1c[nH]c2ccccc12)NC(=O)[C@H](Cc1cnc[nH]1)NC(=O)[C@@H]1CCC(=O)N1)C(=O)N[C@@H](CCCNC(=N)N)C(=O)N1CCC[C@H]1C(=O)NCC(N)=O [C. Example 1]
- in vivo half-life in circulating blood [1]: 2 to 4 min

- Tmax (time to reach the maximum concentration) [2]: 6 h
- CL (clearance rate) ([2]; 12.5 mg/kg): 0.075 (mg/kg)/(ng/mL)/Day
- Cmax (maximum concentration) ([2]; 12.5 mg/kg): 45.7 ng/mL
- Vd (volume of distribution) ([2]; 12.5 mg/kg): 0.436 (mg/kg)/(ng/mL)
- t1/2 (half-life) ([2]; 12.5 mg/kg): 96.7 h
Compound: CCCCCCCCCCCCCCCC(=O)N[C@@H](CCC(N)=O)C(=O)N[C@@H](Cc1c[nH]cn1)C(=O)N[C@@H](Cc1c[nH]c2ccccc12)C(=O)N[C@@H](CO)C(=O)N[C@@H](Cc1ccc(O)cc1)C(=O)N[C@H](CC(C)C)C(=O)N[C@@H](CC(C)C)C(=O)N[C@@H](CCCNC(=N)N)C(=O)N1CCC[C@H]1C(=O)NCC [Example 6, Palmitic acid-Gln-His-Trp-Ser-Tyr-D-Leu-Leu-Arg-Pro-NHEt] (Palmitoyl-QHWSY[dL]LRP-NHEt)

Compound: Palmitic acid-Glu-His-Trp-Ser-Tyr-D-Leu-Leu-Arg-Pro-NHEt (Palmitoyl-EHWSY[dL]LRP-NHEt; also: acetate salt) [Example 5]
- numbers of secondary or Graafian follicles in the ovary (ovary of female rats): decreased

Compound: dexamethasone palmitate
- anti-inflammatory effect relative to dexamethasone alone [3]: 5.6 fold

Compound: Arachidic acid-Glu-His-Trp-Ser-Tyr-D-Leu-Leu-Arg-Pro-NHEt ({Arachidic acid}-EHWSY[dL]LRP-NHEt; also: acetate salt) [Example 7]
- numbers of secondary or Graafian follicles in the ovary (ovary of female rats): decreased

- AUC(0-t) ([2]; female, SD, rat, blood, sc, 12.5 mg/kg, read-out: AUCt (systemic exposure to drug) (converted)): 5190 ng·h/mL
- Cmax ([2]; female, SD, rat, blood, sc, 12.5 mg/kg, read-out: Cmax (maximum concentration)): 52.2 ng/mL
- half-life ([2]; female, SD, rat, blood, sc, 12.5 mg/kg, read-out: t1/2 (half-life) (converted)): 115 h
- Tmax ([2]; female, SD, rat, blood, sc, read-out: Tmax (time to reach the maximum concentration) (converted)): 6 h
- CL (clearance rate) ([2]; 12.5 mg/kg): 0.051 (mg/kg)/(ng/mL)/Day
- Vd (volume of distribution) ([2]; 12.5 mg/kg): 0.351 (mg/kg)/(ng/mL)
Compound: CCCCCCCCCCCCCCCC(=O)N[C@@H](CCC(N)=O)C(=O)N[C@@H](Cc1c[nH]cn1)C(=O)N[C@@H](Cc1c[nH]c2ccccc12)C(=O)N[C@@H](CO)C(=O)N[C@@H](Cc1ccc(O)cc1)C(=O)N[C@H](CC(C)C)C(=O)N[C@@H](CC(C)C)C(=O)N[C@@H](CCCNC(=N)N)C(=O)N1CCC[C@H]1C(=O)NCC [Example 4, Palmitic acid-Gln-His-Trp-Ser-Tyr-D-Leu-Leu-Arg-Pro-NHEt] (Palmitoyl-QHWSY[dL]LRP-NHEt)

Compound: CC(C)C[C@H](NC(=O)[C@@H](Cc1c[nH]c2ccccc12)NC(=O)[C@H](Cc1ccc(O)cc1)NC(=O)[C@H](CO)NC(=O)[C@H](Cc1c[nH]c2ccccc12)NC(=O)[C@H](Cc1c[nH]cn1)NC(=O)[C@@H]1CCC(=O)N1)C(=O)N[C@@H](CCCNC(=N)N)C(=O)N1CCC[C@H]1C(=O)NCC(N)=O [C. Example 3, pyroGlu-His-Trp-Ser-Tyr-D-Trp-Leu-Arg-Pro-Gly-NH2]
- Viability of DU-145 relative to negative control 1% methyl-β-cyclodextrin (%) (DU-145; treatment conc. 100 μM): 100.92 ± 2.98%
- Viability of DU-145 relative to negative control 1% methyl-β-cyclodextrin (%) (DU-145; treatment conc. 200 μM): 94.27 ± 3.47%
- Viability of DU-145 relative to negative control 1% methyl-β-cyclodextrin (%) (DU-145; [4]): about 94%
- Viability of PC3 relative to negative control 1% methyl-ß-cyclodextrin (%) (PC3; treatment conc. 100 μM): 99.67 ± 3.17%
- Viability of PC3 relative to negative control 1% methyl-ß-cyclodextrin (%) (PC3; treatment conc. 200 μM): 95.44 ± 4.03%
- Viability of PC3 relative to negative control 1% methyl-ß-cyclodextrin (%) (PC3; [4]): about 95%
- Viability of LNCaP relative to negative control 1% methyl-β-cyclodextrin (%) (LNCaP; treatment conc. 100 μM): 92.89 ± 4.33%
- Viability of LNCaP relative to negative control 1% methyl-β-cyclodextrin (%) (LNCaP; treatment conc. 200 μM): 90.22 ± 4.03%
- Viability of LNCaP relative to negative control 1% methyl-β-cyclodextrin (%) (LNCaP; [4]): about 90%
